Assay results published in article PMC8760230, “Translational Development of a Zr-89-Labeled Inhibitor of Prostate-specific Membrane Antigen for PET Imaging in Prostate Cancer” (Molecular Imaging and Biology, 2021).
Entries after “also recorded” stand apart in the source; their conditions may differ. Read-outs that look alike come from different tables or passages of the source.

Assays:
[1] = system: LNCaP tumor xenograft; assay: Small-animal PET in mice bearing an LNCaP tumor xenograft, with and without blocking by 2-PMPA; settings: 2-PMPA 23 mg/kg, n=3 per group
[2] = molecular target: T1, PSMA (Homo sapiens, UniProt Q04609); assay: Equilibrium dissociation constant Kd / Bmax, saturation binding on PSMA-positive LNCaP cells; settings: for Kd: 3 h incubation, 0.25-75 nM, nonspecific binding with 2-PMPA; for Bmax (maximum achievable concentration on 10^6 tumor cells): Scatchard plots
T1 construct: host or cells: LNCaP cells
T1 sequence (Q04609 whole entry): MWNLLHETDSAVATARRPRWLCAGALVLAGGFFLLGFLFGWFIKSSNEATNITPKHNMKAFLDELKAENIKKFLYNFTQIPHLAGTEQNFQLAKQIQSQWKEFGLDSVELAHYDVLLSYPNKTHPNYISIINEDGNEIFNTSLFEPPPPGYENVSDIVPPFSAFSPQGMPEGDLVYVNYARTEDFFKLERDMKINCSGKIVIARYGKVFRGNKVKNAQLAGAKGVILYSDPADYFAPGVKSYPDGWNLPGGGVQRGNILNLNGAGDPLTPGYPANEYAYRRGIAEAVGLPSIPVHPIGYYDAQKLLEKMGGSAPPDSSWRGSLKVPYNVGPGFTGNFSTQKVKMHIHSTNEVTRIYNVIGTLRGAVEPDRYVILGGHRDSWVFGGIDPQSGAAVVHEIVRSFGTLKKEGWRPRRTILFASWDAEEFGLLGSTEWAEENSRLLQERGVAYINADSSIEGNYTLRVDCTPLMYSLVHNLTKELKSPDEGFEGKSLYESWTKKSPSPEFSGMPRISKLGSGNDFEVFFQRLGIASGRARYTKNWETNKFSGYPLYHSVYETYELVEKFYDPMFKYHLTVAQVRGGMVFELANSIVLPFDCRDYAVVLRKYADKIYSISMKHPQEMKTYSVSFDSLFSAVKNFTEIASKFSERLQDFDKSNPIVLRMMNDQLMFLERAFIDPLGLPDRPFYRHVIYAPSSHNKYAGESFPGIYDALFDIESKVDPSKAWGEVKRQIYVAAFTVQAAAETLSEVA
Protocol: The equilibrium dissociation constant describing the interaction of the radiolabeled ligands with the PSMA binding sites was determined in PSMA-positive LNCaP cell lines (Cell Line Service, Eppelheim, Germany). LNCaP cells were seeded at a density of 10^6 cells/well on a 6-well plate (Corning, ME, USA) and incubated under 5% CO2 at 37 °C for 48 h with medium (minimum essential medium Eagle supplemented with 2 mM L-glutamine, 0.1 mM non-essential amino acids (NEAA), 1.0 mM sodium pyruvate, 10% fetal bovine serum, 100 U/ml penicillin, and 100 µg/ml streptomycin) (Lonza, Verviers, Belgium) in a humidified incubator (Thermo Heracell 150 CO2-Incubator, MA, USA). To determine the nonspecific binding, the medium was removed from selected wells, and 1 ml of a solution of 0.1 mM of 2-(phosphonomethyl)-pentanedioic acid (2-PMPA) in fresh medium was added. […] The plates were then incubated under 5% CO2, at 37 °C for 1 h. After that, the medium was removed and the cells incubated under the same incubation conditions for 3 h with different concentrations (0.25 nM, 2.5 nM, 5 nM, 10 nM, 25 nM, 50 nM, and 75 nM) of the radiotracer under investigation in 1 ml fresh medium.
After 3 h, the cells were washed three times with 1 ml PBS, and the cells were finally lysed by adding 1 ml of 1 M NaOH and incubating them for 10 min at room temperature. All samples were measured with a gamma counter (Nuklear Medizintechnik Dresden Isomed 100, Dresden, Germany) and were decay-corrected. The equilibrium dissociation constant (Kd) and the maximum density of receptors (Bmax) were calculated by non-linear regression using GraphPad Prism 8.0.2 (GraphPad Software, San Diego, USA).

[3] = system: prostate cancer relapse; assay: First-in-human PET/CT scan in a patient with biochemical recurrence of prostate cancer; settings: 2 h p.i., 343 MBq
Protocol: The patient had given their written informed consent for PET imaging and the scientific evaluation of their data. All procedures were performed in accordance with the Institutional Review Board and the regulations of the regional authorities in Cologne. The kidney dose was estimated on the basis of two PET scans. The following assumptions were made for the estimation: Between time 0 (injection) and the first measuring point, the time-activity-curve follows a constant progression. All measuring points were integrated numerically using trapezoidal approximation. From the last measuring point to infinity, a mono-exponential function was fitted and integrated. As the effective half-life could not be accurately determined from two measurement points, the physical half-life of Zr-89 was used instead.

[4] = system: LNCaP cells; assay: Internalization in LNCaP cells; format: cell-based; settings: n=3
Protocol: (§1) The cell binding determined in these experiments is the sum of specific and nonspecific cell binding. To determine the values for nonspecific cell binding and internalization, all experiments were additionally performed in the presence of 2-PMPA.
(§2) The plates were incubated for 1 h; after which, 0.75 pmol of the radiotracer to be examined was added to 1 ml of fresh medium. The cells were incubated for 30 min, 1, 2, 3, and 5 h. At each time point, the supernatant was removed and the cells washed with 1 ml of PBS. To dissociate the receptor-bound radioligand, the cells were washed twice with 1 ml of a 0.1 M glycine buffer solution at pH 2.8 for 5 min. The 0.1 M glycine–HCl buffer dissociated all the surface-bound complexes. The cells were then washed with 1 ml of PBS, and the internalized fraction was determined by solubilizing the cells with 1 ml of 1 M NaOH and incubating them for 10 min at room temperature. The radioactivity collected from the culture medium, 0.1 M glycine (surface-bound), and 1 M NaOH (internalized fraction) was measured in a gamma counter and decay-corrected. Cell binding was calculated from the surface-bound (0.1 M glycine) and the internalized fraction (1 M NaOH). The internalized fraction was expressed as a percentage of cell binding (internalization to cell-bound radioactivity ratio). All cell uptake experiments were run in triplicate.

[5] = system: LNCaP tumor xenografts; settings: for Tumor/blood ratio / Tumor/kidneys ratio / Tumor/liver ratio / Tumor/muscle ratio: LNCaP xenograft mice; for Biodistribution Blood / Biodistribution Bone / Biodistribution Heart / Biodistribution Intestine / Biodistribution Kidneys / Biodistribution LNCAP-tumor / Biodistribution Lung / Biodistribution Muscle / Biodistribution Prostate / Biodistribution Spleen / Biodistribution Thyroid / Biodistribution Liver: i.v. 30 pmol, n=5
[6] = system: LNCaP cells; assay: Cellular uptake (specific cell binding) in LNCaP cells; format: cell-based; settings: n=3
Protocol: as §1, §2

Structure (SMILES): O=C(O)CCC(CP(=O)(O)O)C(=O)O (stereo not shown) [2-PMPA, 2-(phosphonomethyl)-pentanedioic acid]
- Effect of blocking on accumulation of [^89Zr]Zr-PSMA-DFO radioactivity in the liver ([1]; 1 h, 21 h and 48 h): significantly increased; also recorded: radioactivity accumulated in the liver
- Effect of blocking on accumulation of [^89Zr]Zr-PSMA-DFO radioactivity in the kidneys ([1]; significant after 1 h): significantly reduced
- Effect of blocking on tumor accumulation of [^89Zr]Zr-PSMA-DFO ([1]; significant after 1 h): strongly reduced; also recorded: markedly reduced

Structure (SMILES): COc1nc([18F])ccc1C(=O)NCCCCC(NC(=O)NC(CCC(=O)O)C(=O)O)C(=O)O (stereo not shown) [[^18F]F-JK-PSMA-7]
- Kd [2]: 5.07 ± 0.45 nM
- Bmax (maximum achievable concentration on 10^6 tumor cells) [2]: 2702 ± 61 fmol/10^6 cells
- SUVmax left prostate lobe [3]: 4.63
- SUVmax right prostate lobe [3]: 5.37
- Specific internalized activity as percentage of specific cell-bound activity ([4]; 0.5 h): 19.6±1.3 %
- Specific internalized activity as percentage of specific cell-bound activity ([4]; 1 h): 33.9±1.6 %
- Specific internalized activity as percentage of specific cell-bound activity ([4]; 2 h): 44.3±2.5%
- Specific internalized activity as percentage of specific cell-bound activity ([4]; 3 h): 46.0±2.2%
- Specific internalized activity as percentage of specific cell-bound activity ([4]; 5 h): 48.6±0.9 %
- Tumor/blood ratio ([5]; 2 h p.i.): 142 ± 24
- Tumor/kidneys ratio ([5]; 2 h p.i.): 0.74 ± 0.08
- Tumor/liver ratio ([5]; 2 h p.i.): 4.7 ± 1.2
- Tumor/muscle ratio ([5]; 2 h p.i.): 282 ± 71
- Biodistribution Blood ([5]; 2 h p.i.): 0.15 ± 0.04 %ID/g
- Biodistribution Bone ([5]; 2 h p.i.): 0.18 ± 0.03 %ID/g
- Biodistribution Heart ([5]; 2 h p.i.): 0.12 ± 0.02 %ID/g
- Biodistribution Intestine ([5]; 2 h p.i.): 0.89 ± 0.18 %ID/g
- Biodistribution Kidneys ([5]; 2 h p.i.): 27.2 ± 2.6 %ID/g
- Biodistribution LNCAP-tumor ([5]; 2 h p.i.): 20.2 ± 2.4 %ID/g
- Biodistribution Lung ([5]; 2 h p.i.): 0.18 ± 0.01 %ID/g
- Biodistribution Muscle ([5]; 2 h p.i.): 0.07 ± 0.02 %ID/g
- Biodistribution Prostate ([5]; 2 h p.i.): 0.22 ± 0.03 %ID/g
- Biodistribution Spleen ([5]; 2 h p.i.): 2.15 ± 0.45 %ID/g
- Biodistribution Thyroid ([5]; 2 h p.i.): 0.19 ± 0.02 %ID/g
- Tumor/liver ratio ([5]; 4 h p.i.): 5.7 ± 0.7
- Biodistribution Blood ([5]; 4 h p.i.): 0.12 ± 0.03 %ID/g
- Biodistribution Bone ([5]; 4 h p.i.): 0.20 ± 0.03 %ID/g
- Biodistribution Heart ([5]; 4 h p.i.): 0.10 ± 0.02 %ID/g
- Biodistribution Intestine ([5]; 4 h p.i.): 1.53 ± 0.31 %ID/g
- Biodistribution Kidneys ([5]; 4 h p.i.): 26.0 ± 3.5 %ID/g
- Biodistribution LNCAP-tumor ([5]; 4 h p.i.): 21.3 ± 1.5 %ID/g
- Biodistribution Liver ([5]; 4 h p.i.): 3.75 ± 0.50 %ID/g
- Biodistribution Lung ([5]; 4 h p.i.): 0.18 ± 0.04 %ID/g
- Biodistribution Muscle ([5]; 4 h p.i.): 0.19 ± 0.03 %ID/g
- Biodistribution Prostate ([5]; 4 h p.i.): 0.60 ± 0.16 %ID/g
- Biodistribution Spleen ([5]; 4 h p.i.): 1.57 ± 0.22 %ID/g
- Biodistribution Thyroid ([5]; 4 h p.i.): 0.20 ± 0.02 %ID/g
- Specific binding in LNCaP cells as percentage of total activity ([6]; 0.5 h): 23.8±0.6 %
- Specific binding in LNCaP cells as percentage of total activity ([6]; 1 h): 32.6±0.4 %
- Specific binding in LNCaP cells as percentage of total activity ([6]; 2 h): 38.8±1.3 %
- Specific binding in LNCaP cells as percentage of total activity ([6]; 3 h): 45.2±1.9 %
- Specific binding in LNCaP cells as percentage of total activity ([6]; 5 h): 45.8±0.4 %

Structure (SMILES): O=C([O-])CN(CCN(CC(=O)[O-])Cc1cc(CCC(=O)NCCCCCC(=O)NCCCC[C@H](NC(=O)N[C@@H](CCC(=O)O)C(=O)O)C(=O)O)ccc1[O-])Cc1cc(CCC(=O)O)ccc1[O-].[68Ga+3].[OH3+] [[^68Ga]Ga-PSMA-11]
- Kd [2]: 5.15 ± 0.6 nM
- Bmax (maximum achievable concentration on 10^6 tumor cells) [2]: 1746 ± 53 fmol/10^6 cells
- Specific internalized activity as percentage of specific cell-bound activity ([4]; 0.5 h): 28.9±0.7%
- Specific internalized activity as percentage of specific cell-bound activity ([4]; 1 h): 39.7±2.0%
- Specific internalized activity as percentage of specific cell-bound activity ([4]; 2 h): 48.3±2.5%
- Specific internalized activity as percentage of specific cell-bound activity ([4]; 3 h): 50.5±3.4%
- Specific internalized activity as percentage of specific cell-bound activity ([4]; 5 h): 56.8±2.2 %
- Tumor/blood ratio ([5]; 2 h p.i.): 15 ± 3
- Tumor/kidneys ratio ([5]; 2 h p.i.): 0.09 ± 0.02
- Tumor/liver ratio ([5]; 2 h p.i.): 6.2 ± 1.0
- Tumor/muscle ratio ([5]; 2 h p.i.): 37 ± 8
- Biodistribution Blood ([5]; 2 h p.i.): 1.34 ± 0.20 %ID/g
- Biodistribution Bone ([5]; 2 h p.i.): 1.19 ± 0.31 %ID/g
- Biodistribution Heart ([5]; 2 h p.i.): 1.10 ± 0.36 %ID/g
- Biodistribution Intestine ([5]; 2 h p.i.): 1.50 ± 0.59 %ID/g
- Biodistribution Kidneys ([5]; 2 h p.i.): 231 ± 41 %ID/g
- Biodistribution LNCAP-tumor ([5]; 2 h p.i.): 19.4 ± 2.4 %ID/g
- Biodistribution Liver ([5]; 2 h p.i.): 3.17 ± 0.18 %ID/g
- Biodistribution Lung ([5]; 2 h p.i.): 3.27 ± 1.03 %ID/g
- Biodistribution Muscle ([5]; 2 h p.i.): 0.54 ± 0.15 %ID/g
- Biodistribution Prostate ([5]; 2 h p.i.): 4.09 ± 1.15 %ID/g
- Biodistribution Spleen ([5]; 2 h p.i.): 40.9 ± 9.3 %ID/g
- Biodistribution Thyroid ([5]; 2 h p.i.): 2.13 ± 0.27 %ID/g
- Tumor/kidneys ratio ([5]; 4 h p.i.): 0.10 ± 0.05
- Tumor/liver ratio ([5]; 4 h p.i.): 34.6 ± 6.6
- Biodistribution Blood ([5]; 4 h p.i.): 0.21 ± 0.03 %ID/g
- Biodistribution Bone ([5]; 4 h p.i.): 0.50 ± 0.19 %ID/g
- Biodistribution Heart ([5]; 4 h p.i.): 1.35 ± 0.70 %ID/g
- Biodistribution Intestine ([5]; 4 h p.i.): 0.65 ± 0.30 %ID/g
- Biodistribution Kidneys ([5]; 4 h p.i.): 226 ± 25 %ID/g
- Biodistribution LNCAP-tumor ([5]; 4 h p.i.): 23.2 ± 10.6 %ID/g
- Biodistribution Liver ([5]; 4 h p.i.): 0.65 ± 0.21 %ID/g
- Biodistribution Lung ([5]; 4 h p.i.): 1.23 ± 0.13 %ID/g
- Biodistribution Muscle ([5]; 4 h p.i.): 0.42 ± 0.11 %ID/g
- Biodistribution Prostate ([5]; 4 h p.i.): 1.67 ± 0.37 %ID/g
- Biodistribution Spleen ([5]; 4 h p.i.): 62.5 ± 21.5 %ID/g
- Biodistribution Thyroid ([5]; 4 h p.i.): 4.44 ± 2.9 %ID/g
- Specific binding in LNCaP cells as percentage of total activity ([6]; 0.5 h): 27.7±0.7%
- Specific binding in LNCaP cells as percentage of total activity ([6]; 1 h): 35.3±3.1 %
- Specific binding in LNCaP cells as percentage of total activity ([6]; 2 h): 42.0±1.2 %
- Specific binding in LNCaP cells as percentage of total activity ([6]; 3 h): 46.3±2.1%
- Specific binding in LNCaP cells as percentage of total activity ([6]; 5 h): 48.3±1.2%

Structure (SMILES): CC(=O)N1CCCCCNC(=O)CCC(=O)N2CCCCCNC(=O)CCC(=O)N(CCCCCNC(=O)CCC(=O)NCC3CCC(C(=O)NC(Cc4ccc5ccccc5c4)C(=O)NCCCCC(NC(=O)NC(CCC(=O)O)C(=O)O)C(=O)O)CC3)[O][Zr+]([O]1)[O]2 (stereo not shown) [[^89Zr]Zr-PSMA-DFO, [^89Zr]Zr-N-sucDf-AMCHA-2Nal-EuK]
- Kd [2]: 4.97 ± 0.57 nM
